The values below come from patent publication US11485731B2, “Compounds and methods useful in the treatment of a PRMT5-mediated disorder” (ARGONAUT THERAPEUTICS LIMITED, priority 2017, dated 2022).

Each structure is given as a SMILES string.

The assay deals with human PRMT5/MEP50 (Homo sapiens (Human), UniProt O14744). Briefly: PRMT5 chemiluminescent assay. In kind it is biochemical. As to conditions: human PRMT5/MEP50 expressed in HEK293 cells; biotinylated histone peptides; Histone H4 monomethyl R3 antibody; chemiluminescent readout. The procedure, abridged: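 HEK293-expressed PRMT5/MEP50, diluted to 5 ng/µL in assay buffer, reacted 60 min with rotation on plate-bound biotinylated histone peptides. Product was detected with anti-histone H4 R3 monomethyl antibody (60 min), then HRP secondary (30 min) and chemiluminescent substrate. IC50 values came from the chemiluminescence signal.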
human PRMT5/MEP50, sequence (O14744 whole entry): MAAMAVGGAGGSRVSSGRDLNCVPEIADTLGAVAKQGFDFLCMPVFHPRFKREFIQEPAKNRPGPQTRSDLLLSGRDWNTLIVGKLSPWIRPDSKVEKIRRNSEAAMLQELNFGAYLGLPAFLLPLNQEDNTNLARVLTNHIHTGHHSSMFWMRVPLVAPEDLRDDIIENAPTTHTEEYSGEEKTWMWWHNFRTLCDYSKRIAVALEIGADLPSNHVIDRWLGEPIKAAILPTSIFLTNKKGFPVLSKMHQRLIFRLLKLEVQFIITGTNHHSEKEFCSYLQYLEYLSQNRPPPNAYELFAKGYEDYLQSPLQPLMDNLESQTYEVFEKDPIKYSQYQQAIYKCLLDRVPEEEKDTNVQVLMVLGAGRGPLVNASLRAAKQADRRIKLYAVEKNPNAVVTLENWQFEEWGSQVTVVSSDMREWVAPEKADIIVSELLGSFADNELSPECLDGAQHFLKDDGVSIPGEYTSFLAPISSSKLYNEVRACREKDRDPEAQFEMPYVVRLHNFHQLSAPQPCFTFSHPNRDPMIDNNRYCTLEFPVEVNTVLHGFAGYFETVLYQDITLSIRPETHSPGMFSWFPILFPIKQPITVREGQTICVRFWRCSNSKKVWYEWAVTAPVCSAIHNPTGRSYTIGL
human PRMT5/MEP50, sequence (Q9BQA1 whole entry partner): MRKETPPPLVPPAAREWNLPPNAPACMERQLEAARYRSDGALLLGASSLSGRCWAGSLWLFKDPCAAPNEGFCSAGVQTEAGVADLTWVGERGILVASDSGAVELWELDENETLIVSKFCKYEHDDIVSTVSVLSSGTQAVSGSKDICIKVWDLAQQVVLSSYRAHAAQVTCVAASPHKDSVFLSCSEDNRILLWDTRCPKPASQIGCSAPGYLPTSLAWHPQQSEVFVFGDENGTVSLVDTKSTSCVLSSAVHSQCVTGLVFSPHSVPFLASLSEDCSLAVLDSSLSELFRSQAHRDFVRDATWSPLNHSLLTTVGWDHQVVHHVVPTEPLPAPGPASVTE
As to `O=C(NCC(O)CN1CCc2ccccc2C1)N1CCC(C(=O)N2CCOCC2)CC1` (centres unmarked) [Example 1O, N-(3-(3,4-dihydroisoquinolin-2(1H)-yl)-2-hydroxypropyl)-4-(morpholine-4-carbonyl)piperidine-1-carboxamide], the IC50 turned out to be 51 nM.

`O=C(NCC(O)CN1CCc2ccccc2C1)N1CCCC(Nc2ccncc2)C1` (centres unmarked) [Example 1P, N-(3-(3,4-dihydroisoquinolin-2(1H)-yl)-2-hydroxypropyl)-3-(pyridin-4-ylamino)piperidine-1-carboxamide]: the IC50 is 221 nM.

In turn, `O=C(NCC(O)CN1CCc2ccccc2C1)N1CCC(Cc2ccccc2)CC1` (centres unmarked) [Example 1Q, 4-benzyl-N-(3-(3,4-dihydroisoquinolin-2(1H)-yl)-2-hydroxypropyl)piperidine-1-carboxamide] displayed an IC50 of 276 nM.

In the case of `O=C(NCC(O)CN1CCc2ccccc2C1)N1CCC(C(=O)N2C3CCC2COC3)CC1` (centres unmarked) [Example 1R, 4-(3-oxa-8-azabicyclo[3.2.1]octane-8-carbonyl)-N-(3-(3,4-dihydroisoquinolin-2(1H)-yl)-2-hydroxypropyl)piperidine-1-carboxamide], the IC50 amounted to 11 nM.

`O=C(NCC(O)CN1CCc2ccccc2C1)N1CCCN(c2ccccc2)CC1` (centres unmarked) [Example 1S, N-(3-(3,4-dihydroisoquinolin-2(1H)-yl)-2-hydroxypropyl)-4-phenyl-1,4-diazepane-1-carboxamide] returned an IC50 of 95 nM.

On to `O=C(NCC(O)CN1CCc2ccccc2C1)N1CCCN(Cc2ccccc2)CC1` (centres unmarked) [Example 1T, 4-benzyl-N-(3-(3,4-dihydroisoquinolin-2(1H)-yl)-2-hydroxypropyl)-1,4-diazepane-1-carboxamide], for which half-maximal inhibition (IC50) was put at 40 nM.

For the compound `O=C(NCC(O)CN1CCc2ccccc2C1)N1CCSCC1` (centres unmarked) [Example 1U, N-(3-(3,4-dihydroisoquinolin-2(1H)-yl)-2-hydroxypropyl)thiomorpholine-4-carboxamide], the midpoint of inhibition, the IC50, lay at 896 nM.

With `CN(C)C(=O)C1CN(C(=O)NCC(O)CN2CCc3ccccc3C2)C1` (centres unmarked) [Example 1V, N^1-(3-(3,4-dihydroisoquinolin-2(1H)-yl)-2-hydroxypropyl)-N^3,N^3-dimethylazetidine-1,3-dicarboxamide], the IC50 worked out at 8540 nM.

For the compound `O=C(NCC(O)CN1CCc2ccccc2C1)N1CC(C(=O)N2CCOCC2)C1` (centres unmarked) [Example 1W, N-(3-(3,4-dihydroisoquinolin-2(1H)-yl)-2-hydroxypropyl)-3-(morpholine-4-carbonyl)azetidine-1-carboxamide], the IC50 worked out at 7390 nM.

Regarding `O=C(NCC(O)CN1CCc2ccccc2C1)N1CC(C(=O)N2C3CCC2COC3)C1` (centres unmarked) [Example 1X, 3-(3-oxa-8-azabicyclo[3.2.1]octane-8-carbonyl)-N-(3-(3,4-dihydroisoquinolin-2(1H)-yl)-2-hydroxypropyl)azetidine-1-carboxamide], the midpoint of inhibition, the IC50, lay at 376 nM.

The compound `O=C(NCC(O)CN1CCc2sccc2C1)N1CCCc2ccccc21` (centres unmarked) [Example 1Y, N-(3-(6,7-dihydrothieno[3,2-c]pyridin-5(4H)-yl)-2-hydroxypropyl)-3,4-dihydroquinoline-1(2H)-carboxamide] returned an IC50 of 236 nM.

Take `O=C(NCC(O)CN1CCc2ccsc2C1)N1CCCc2ccccc21` (centres unmarked) [Example 1Z, N-(3-(4,7-dihydrothieno[2,3-c]pyridin-6(5H)-yl)-2-hydroxypropyl)-3,4-dihydroquinoline-1(2H)-carboxamide]: half-maximal inhibition (IC50) was put at 639 nM.

Compound `O=C(NCC(O)CN1CCc2ccccc2C1)N1CCCc2ccccc21` (centres unmarked) [Example 2A, N-(3-(3,4-dihydroisoquinolin-2(1H)-yl)-2-hydroxypropyl)-3,4-dihydroquinoline-1(2H)-carboxamide] had an IC50 of 87 nM.

`O=C(NCC(O)CN1CCc2ccccc2C1)N1CCc2ccccc21` (centres unmarked) [Example 2B, N-[2-hydroxy-3-(1,2,3,4-tetrahydroisoquinolin-2-yl)propyl]-2,3-dihydro-1H-indole-1-carboxamide]: the IC50 came out at 8500 nM.

In general, IC50 refers to the point on the concentration scale where inhibition reaches its midpoint. The low end stands for greater potency, the high end for weaker potency.
